Where two headings read alike, the source gives them in different places.
Legend:
HIV-1(IIIB) = assay: Knock-out concentrations: breakthrough of HIV-1(IIIB)-induced cytopathicity in CEM cell cultures; type: cell-based; details: Human immunodeficiency virus 1, IIIB, CCRF-CEM, read-out: HIV-1-induced cytopathicity in cell culture; for activity at 0.1 µg/mL: 0.1 μg/ml; for activity at 0.5 µg/mL: 0.5 μg/ml; for activity at 2.5 µg/mL: 2.5 μg/ml
Method: The culture medium consisted of RPMI 1640 containing 10% fetal bovine serum, 2 mM L-glutamine, and 0.075% NaHCO3. The multiplicity of the initial infection was ~1000 times the CCID50 (50% cell culture infective dose). Passages were performed every 3 to 4 days by adding 0.5 to 1.0 ml of the infected culture supernatant to 5 ml of a suspension containing 4×10^5 uninfected CEM cells per ml. Syncytium formation was used as a parameter of virus breakthrough in the cell cultures. In the drug combination experiments, the compounds were combined at the same initial concentrations as used for the two lowest concentrations in the single-drug experiments.
The drug concentrations were kept constant throughout the whole time period of the experiment (10 subcultivations or 35 days). Then the drugs were removed from the cell cultures, and the cells were further subcultured for at least 5 additional passages.

HIV-1(IIIB) (WT) = assay: microbe, parasite or virus in culture; type: cell-based; details: Human immunodeficiency virus 1, IIIB, CCRF-CEM; CEM cells, Table 1; read-out: 50% Effective Concentration
How it was run: (§1)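 CEM cells at 250,000 cells/ml were infected with HIV-1 at 100 CCID50 per ml, then mixed with serial dilutions of test compound. After 4 days at 37° C., cultures were scored for syncytium formation.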

HIV-1/Pyr (181-Cys) = assay: Sensitivity of mutant HIV-1 strain in CEM cell cultures; type: cell-based; details: Human immunodeficiency virus 1, CCRF-CEM; CEM cells, Table 1; read-out: 50% Effective Concentration
How it was run: as §1

[1] = tested on: HIV-1/TSAO-m^3 T (138-Lys); assay: as above; type: cell-based; details: Human immunodeficiency virus 1, CCRF-CEM; CEM cells, Table 1; read-out: 50% Effective Concentration
How it was run: as §1

[2] = tested on: HIV-1/TIBO R82913 (103-Asn); assay: as above; type: cell-based; details: Human immunodeficiency virus 1, CCRF-CEM; CEM cells, Table 1; read-out: 50% Effective Concentration
How it was run: as §1

HIV-1/Nev (106-Ala) = assay: as above; type: cell-based; details: Human immunodeficiency virus 1, CCRF-CEM; CEM cells, Table 1; read-out: 50% Effective Concentration
How it was run: as §1

[3] = tested on: HIV-1/TIBO R82150 (100-Ile); assay: as above; type: cell-based; details: Human immunodeficiency virus 1, CCRF-CEM; CEM cells, Table 1; read-out: 50% Effective Concentration
How it was run: as §1

HIV-1 RT (WT) = HIV-1 RT (WT) (Human immunodeficiency virus type 1 group M subtype B, UniProt P03366); assay: biochemical; details: substrate [2,8-3H]dGTP 2.95 μM, template poly(rC)oligo(dG); read-out: IC50, anti-HIV-1 RT (WT) activity (converted)
Method: The reaction mixture (50 μl) contained 50 mM Tris.HCl, pH 7.8, 5 mM dithiothreitol, […] glutathione, 500 μM EDTA, 150 mM KCl, 5 mM MgCl2, 1.25 μg of bovine serum albumin, a fixed concentration of the labeled substrate [2,8-^3 H]dGTP (2.95 μM, 2 μCi), a fixed concentration of the template/primer poly(C).oligo(dG) (0.1 mM), 0.06% Triton X-100, 5 μl of inhibitor solution [containing various concentrations (5-fold dilutions) of the test compounds], and 5 μl of the RT preparation. The reaction mixtures were incubated at 37° C. for 30 min, at which time 100 μl of calf thymus DNA (150 μg/ml), 2 ml of Na4 P2 07 (0.1 M in 1M HCl), and 2 ml of trichloroacetic acid (10%, v/v) were added. The solutions were kept on ice for 30 min, after which the acid-insoluble material was washed and analyzed for radioactivity.
Compounds I, III, IV and V were evaluated for their inhibitory effect on recombinant HIV-1 RT.

[4] = 936 h, day 39 post infection, compound absent from day 35
[5] = 1008 h, day 42 post infection, compound absent from day 35
[6] = 1104 h, day 46 post infection, compound absent from day 35
[7] = 1176 h, day 49 post infection, compound absent from day 35
[8] = 1272 h, day 53 post infection, compound absent from day 35

CC(C)Nc1cccnc1N1CCN(C(=O)c2cc3ccccc3[nH]2)CC1 [BHAP U88204, reference compound]
0.04 µg/mL: EC50 (HIV-1(IIIB) (WT))
12.5%: activity at 0.1 µg/mL (HIV-1(IIIB); 192 h, day 8 post infection)
0.07 µg/mL: EC50 [1]
0.4 µg/mL: EC50 (HIV-1/Pyr (181-Cys)) | EC50 (HIV-1/Nev (106-Ala))
25%: activity at 0.5 µg/mL (HIV-1(IIIB); 408 h, day 17 post infection)
50%: activity at 0.1 µg/mL (HIV-1(IIIB); 264 h, day 11 post infection)
1.21 µM: IC50 (HIV-1 RT (WT))
0%: activity at 0.1 µg/mL (HIV-1(IIIB); 96 h, day 4 post infection) | activity at 0.5 µg/mL (HIV-1(IIIB); 96 h, day 4 post infection) | activity at 2.5 µg/mL (HIV-1(IIIB); 96 h, day 4 post infection) | activity at 0.5 µg/mL (HIV-1(IIIB); 192 h, day 8 post infection) | activity at 2.5 µg/mL (HIV-1(IIIB); 192 h, day 8 post infection) | activity at 2.5 µg/mL (HIV-1(IIIB); 264 h, day 11 post infection) | activity at 2.5 µg/mL (HIV-1(IIIB); 336 h, day 14 post infection) | activity at 2.5 µg/mL (HIV-1(IIIB); 408 h, day 17 post infection) | activity at 2.5 µg/mL (HIV-1(IIIB); 504 h, day 21 post infection) | activity at 2.5 µg/mL (HIV-1(IIIB); 600 h, day 25 post infection) | activity at 2.5 µg/mL (HIV-1(IIIB); 672 h, day 28 post infection) | activity at 2.5 µg/mL (HIV-1(IIIB); 768 h, day 32 post infection) | activity at 2.5 µg/mL (HIV-1(IIIB); 840 h, day 35 post infection) | activity at 2.5 µg/mL (HIV-1(IIIB); [4]) | activity at 2.5 µg/mL (HIV-1(IIIB); [5]) | activity at 2.5 µg/mL (HIV-1(IIIB); [6]) | activity at 2.5 µg/mL (HIV-1(IIIB); [7]) | activity at 2.5 µg/mL (HIV-1(IIIB); [8])
0.75 µg/mL: EC50 [3]
75%: activity at 0.5 µg/mL (HIV-1(IIIB); 504 h, day 21 post infection)
87.5%: activity at 0.5 µg/mL (HIV-1(IIIB); 600 h, day 25 post infection)
100%: activity at 0.1 µg/mL (HIV-1(IIIB); 336 h, day 14 post infection) | activity at 0.1 µg/mL (HIV-1(IIIB); 408 h, day 17 post infection) | activity at 0.1 µg/mL (HIV-1(IIIB); 504 h, day 21 post infection) | activity at 0.1 µg/mL (HIV-1(IIIB); 600 h, day 25 post infection) | activity at 0.1 µg/mL (HIV-1(IIIB); 672 h, day 28 post infection) | activity at 0.5 µg/mL (HIV-1(IIIB); 672 h, day 28 post infection) | activity at 0.1 µg/mL (HIV-1(IIIB); 768 h, day 32 post infection) | activity at 0.5 µg/mL (HIV-1(IIIB); 768 h, day 32 post infection) | activity at 0.1 µg/mL (HIV-1(IIIB); 840 h, day 35 post infection) | activity at 0.5 µg/mL (HIV-1(IIIB); 840 h, day 35 post infection) | activity at 0.1 µg/mL (HIV-1(IIIB); [4]) | activity at 0.5 µg/mL (HIV-1(IIIB); [4]) | activity at 0.1 µg/mL (HIV-1(IIIB); [5]) | activity at 0.5 µg/mL (HIV-1(IIIB); [5]) | activity at 0.1 µg/mL (HIV-1(IIIB); [6]) | activity at 0.5 µg/mL (HIV-1(IIIB); [6]) | activity at 0.1 µg/mL (HIV-1(IIIB); [7]) | activity at 0.5 µg/mL (HIV-1(IIIB); [7]) | activity at 0.1 µg/mL (HIV-1(IIIB); [8]) | activity at 0.5 µg/mL (HIV-1(IIIB); [8])
1.7 µg/mL: EC50 [2]
6.25%: activity at 0.5 µg/mL (HIV-1(IIIB); 264 h, day 11 post infection) | activity at 0.5 µg/mL (HIV-1(IIIB); 336 h, day 14 post infection)

— patent publication US5968910A, “Compositions containing two or three inhibitors of different HIV reverse transcriptases” (priority 1994, dated 1999)
